Source: ChEMBL document CHEMBL1201862, “PubChem BioAssay data set” (2004)
Calls of active or inactive are those of the source.

Columns and labels:
P388/ADR = experiment: cells; assay type: functional; conditions: Mus musculus
SN12K1 = experiment: cells; assay type: functional; conditions: Homo sapiens
P388 = experiment: cells; assay type: functional; conditions: Mus musculus
[1] = molecular target: Eukaryotic translation initiation factor 4E (Mus musculus, UniProt P63073); experiment: eIF4E–eIF4G protein interaction inhibitors, dose response, biochemical, TR-FRET (AID 855); assay type: functional;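 also: potency for disrupting eIF4E binding to eIF4GI seen as loss of FRET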
Protein skinhead-1 = molecular target: T1, Protein skinhead-1 (Caenorhabditis elegans, UniProt P34707); assay type: functional
T1 sequence (P34707 whole entry): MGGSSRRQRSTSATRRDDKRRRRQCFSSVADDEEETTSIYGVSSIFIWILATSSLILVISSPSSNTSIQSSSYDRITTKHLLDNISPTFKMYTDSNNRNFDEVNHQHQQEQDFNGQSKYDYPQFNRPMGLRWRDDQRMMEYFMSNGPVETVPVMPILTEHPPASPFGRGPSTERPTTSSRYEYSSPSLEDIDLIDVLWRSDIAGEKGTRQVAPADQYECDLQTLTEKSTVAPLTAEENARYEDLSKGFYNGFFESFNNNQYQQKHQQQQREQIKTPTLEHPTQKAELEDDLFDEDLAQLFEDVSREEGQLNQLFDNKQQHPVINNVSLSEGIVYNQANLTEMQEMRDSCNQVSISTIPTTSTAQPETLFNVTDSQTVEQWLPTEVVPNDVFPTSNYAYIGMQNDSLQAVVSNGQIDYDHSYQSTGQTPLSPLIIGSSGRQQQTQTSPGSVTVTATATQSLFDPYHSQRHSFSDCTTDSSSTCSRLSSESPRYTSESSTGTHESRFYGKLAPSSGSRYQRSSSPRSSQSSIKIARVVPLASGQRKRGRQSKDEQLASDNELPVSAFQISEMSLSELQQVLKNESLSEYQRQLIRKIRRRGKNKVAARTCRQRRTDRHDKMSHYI

Cytochrome P450 3A4 = Cytochrome P450 3A4 (Homo sapiens, UniProt P08684);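 also: CYP3A4 tested as one member of a cytochrome P450 panel screen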
[2] = Luminescence Cell-Based Dose Retest to Confirm Inhibitors of Cancer Stem Cells. [Related pubchem assays (depositor defined):AID2717, AID2721]; assay type: functional; conditions: Homo sapiens
[3] = molecular target: T2, Ubiquitin-conjugating enzyme E2 N (Homo sapiens, UniProt P61088); assay type: functional;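 also: Dose-response confirmation in a TR-FRET assay detecting UBC13-driven polyubiquitin chain formation, inhibition measured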
T2 sequence (P61088 whole entry): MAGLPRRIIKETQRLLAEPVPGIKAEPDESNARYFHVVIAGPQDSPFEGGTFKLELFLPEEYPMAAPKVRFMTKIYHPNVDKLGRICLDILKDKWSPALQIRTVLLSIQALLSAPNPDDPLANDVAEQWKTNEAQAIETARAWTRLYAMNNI

[4] = P. falciparum Dd2 growth inhibitors, dose response, SYBR Green, cherry-picked samples (AID 1159567); assay type: functional, cell-based
[5] = HepG2 cell cytotoxicity, dose response, cytotoxicity control, cherry-picked samples (AID 1159577); assay type: functional, cell-based
Estrogen receptor beta = Estrogen receptor beta (Homo sapiens, UniProt Q92731); experiment: ERβ–SRC-3 coactivator interaction inhibitors, confirmation, orthogonal assay, biochemical, ELISA, streptavidin-HRP readout (AID 1060)
[6] = A cytotoxicity screen of small molecule inhibitors of the PhoP region in Salmonella typhi identified in the primary screen. [Related pubchem assays: 1850, 1864, 1985 ]; assay type: functional
[7] = molecular target: Disintegrin and metalloproteinase domain-containing protein 17 (Homo sapiens, UniProt P78536); experiment: exosite inhibitors of ADAM17, dose response, biochemical (AID 743260)
[8] = ADAM10 protease inhibitors, dose response, selectivity assay for ADAM17 exosite inhibitor project, biochemical, FRET peptide substrate, recombinant human ADAM10 (AID 743259);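 also: ADAM10 enzyme cleaving a FRET peptide substrate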
[9] = HEK293T cytotoxicity, dose response, cytotoxicity control for miR-122 modulator project, cell-based, inhibitor set, cherry-pick, set 2 (AID 720697); assay type: functional
Prothrombin = Prothrombin (Homo sapiens, UniProt P00734); experiment: Thrombin 1536 HTS Dose Response Confirmation. [Related pubchem assays: 1046 (Thrombin 1536 HTS; hits were confirmed in this assay)]; assay type: functional
[10] = molecular target: Luciferin 4-monooxygenase (Photinus pyralis, UniProt P08659); experiment: firefly luciferase enzyme inhibitors, dose response, biochemical, luminescence (AID 1891)
[11] = HEp-2 cell cytotoxicity, dose response, cytotoxicity control for RSV inhibitor project, HTS (AID 2410); assay type: functional; conditions: human respiratory syncytial virus
[12] = inhibitors of intracellular T. cruzi replication, confirmation, NIH3T3 host cells, beta-gal luminescence (AID 2044); assay type: functional, cell-based;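 also: intracellular parasites grown in NIH/3T3 mouse fibroblasts as host cells; luminescent beta-galactosidase reporter signal from transgenic T. cruzi replicating inside host cells; inhibitors lower the luminescence signal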
[13] = cytotoxicity toward NIH3T3 fibroblasts, dose response, counter-screen, cell-based, ATP luminescence, mouse fibroblasts (AID 2010); assay type: functional;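 also: cells exposed to compound for about 90 hours before reading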
[14] = molecular target: DNA dC->dU-editing enzyme APOBEC-3G (Homo sapiens, UniProt Q9HC16); experiment: Dose Response confirmation of small molecule APOBEC3G DNA Deaminase Inhibitors via a fluorescence-based single-stranded DNA deaminase assay. [Related pubchem assays (depositor defined):AID493012, AID493028]; assay type: functional
[15] = molecular target: T3, Polyadenylate-binding protein 1 (Homo sapiens, UniProt P11940); experiment: PABP1 MLLE–PAM2 interaction inhibitors, dose response, miRNA deadenylation inhibitor project, biochemical, fluorescence polarization, Cy5-PAM2 peptide, secondary (AID 602260); assay type: functional; conditions: read-out: IC50_Mean
[16] = molecular target: T3, Polyadenylate-binding protein 1; experiment: PABP1 MLLE–PAM2 binding inhibitor potency, dose response, biochemical, fluorescence polarization, FITC-PAM2 peptide (AID 602259); assay type: functional; conditions: read-out: IC50_Mean
Cytochrome P450 2C19 = Cytochrome P450 2C19 (Homo sapiens, UniProt P33261); experiment: Cytochrome panel assay with activity outcomes. Panel member name: p450-cyp2c19 Compounds with AC50 equal or less than 10 uM are considered active; assay type: functional; conditions: read-out: AC50
Cytochrome P450 2D6 = Cytochrome P450 2D6 (Homo sapiens, UniProt P10635);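 also: CYP2D6 member of a cytochrome P450 panel assay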
Cytochrome P450 1A2 = molecular target: T4, Cytochrome P450 1A2 (Homo sapiens, UniProt P05177);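 also: PubChem cytochrome P450 panel assay, CYP1A2 panel member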
T4 sequence (P05177 whole entry): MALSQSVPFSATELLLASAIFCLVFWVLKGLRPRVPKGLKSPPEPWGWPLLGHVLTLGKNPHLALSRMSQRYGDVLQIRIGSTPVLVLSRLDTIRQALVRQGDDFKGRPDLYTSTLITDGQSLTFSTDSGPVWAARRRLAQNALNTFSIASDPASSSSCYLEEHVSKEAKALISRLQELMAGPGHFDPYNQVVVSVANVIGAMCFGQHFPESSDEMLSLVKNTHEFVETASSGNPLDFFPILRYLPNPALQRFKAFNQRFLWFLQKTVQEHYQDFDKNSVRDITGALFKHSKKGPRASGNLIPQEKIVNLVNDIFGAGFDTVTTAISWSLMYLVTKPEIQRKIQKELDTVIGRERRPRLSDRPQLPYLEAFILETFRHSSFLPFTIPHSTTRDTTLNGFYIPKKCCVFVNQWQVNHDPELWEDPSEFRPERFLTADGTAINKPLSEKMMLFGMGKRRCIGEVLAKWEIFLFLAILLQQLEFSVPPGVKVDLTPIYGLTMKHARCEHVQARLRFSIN

Cytochrome P450 2C9 = Cytochrome P450 2C9 (Homo sapiens, UniProt P11712)
Cytochrome P450 2C9, sequence (P11712 whole entry): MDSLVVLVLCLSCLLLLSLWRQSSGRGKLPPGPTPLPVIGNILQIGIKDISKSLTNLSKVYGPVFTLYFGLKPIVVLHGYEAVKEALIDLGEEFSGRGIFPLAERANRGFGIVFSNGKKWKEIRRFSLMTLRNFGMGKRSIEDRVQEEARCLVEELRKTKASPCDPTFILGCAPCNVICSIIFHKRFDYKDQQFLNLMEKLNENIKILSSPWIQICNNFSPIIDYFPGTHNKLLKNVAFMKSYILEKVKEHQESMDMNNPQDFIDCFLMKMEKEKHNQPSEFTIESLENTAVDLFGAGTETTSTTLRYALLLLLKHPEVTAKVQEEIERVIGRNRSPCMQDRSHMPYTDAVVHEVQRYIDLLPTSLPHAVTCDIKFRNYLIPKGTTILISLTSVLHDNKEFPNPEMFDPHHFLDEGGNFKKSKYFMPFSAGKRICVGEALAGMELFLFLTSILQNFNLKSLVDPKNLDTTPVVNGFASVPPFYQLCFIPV

Disintegrin and metalloproteinase domain-containing protein 17, sequence (P78536 whole entry, the tested form may be a part): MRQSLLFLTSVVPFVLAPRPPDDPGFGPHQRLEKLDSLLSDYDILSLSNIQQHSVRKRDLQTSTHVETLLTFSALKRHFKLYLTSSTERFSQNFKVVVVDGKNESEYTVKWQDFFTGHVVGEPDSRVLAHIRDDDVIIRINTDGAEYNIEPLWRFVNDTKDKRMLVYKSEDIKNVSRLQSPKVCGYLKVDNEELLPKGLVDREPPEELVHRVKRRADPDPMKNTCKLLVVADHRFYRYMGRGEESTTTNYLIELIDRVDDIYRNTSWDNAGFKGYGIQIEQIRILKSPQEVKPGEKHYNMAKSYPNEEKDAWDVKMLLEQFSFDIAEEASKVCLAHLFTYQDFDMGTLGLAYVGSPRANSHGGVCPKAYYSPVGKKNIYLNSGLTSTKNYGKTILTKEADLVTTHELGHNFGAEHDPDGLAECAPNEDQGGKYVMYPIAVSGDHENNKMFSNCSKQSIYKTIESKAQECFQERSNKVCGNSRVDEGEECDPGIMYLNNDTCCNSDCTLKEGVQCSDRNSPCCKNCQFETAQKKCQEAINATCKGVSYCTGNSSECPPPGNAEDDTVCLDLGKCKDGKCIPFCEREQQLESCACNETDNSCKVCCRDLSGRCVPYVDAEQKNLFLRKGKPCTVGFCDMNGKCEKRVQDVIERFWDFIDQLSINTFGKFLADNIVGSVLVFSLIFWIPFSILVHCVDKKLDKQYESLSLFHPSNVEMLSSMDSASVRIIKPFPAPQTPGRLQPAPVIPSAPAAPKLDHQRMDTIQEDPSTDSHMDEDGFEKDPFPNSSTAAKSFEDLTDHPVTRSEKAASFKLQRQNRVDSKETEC
Eukaryotic translation initiation factor 4E, sequence (P63073 whole entry): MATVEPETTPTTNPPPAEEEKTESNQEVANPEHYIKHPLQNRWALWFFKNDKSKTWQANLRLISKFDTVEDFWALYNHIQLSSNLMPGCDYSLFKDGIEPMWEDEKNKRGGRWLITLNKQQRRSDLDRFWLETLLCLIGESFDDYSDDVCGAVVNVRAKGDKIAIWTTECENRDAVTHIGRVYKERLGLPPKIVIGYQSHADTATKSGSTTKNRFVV
Cytochrome P450 3A4, sequence (P08684 whole entry): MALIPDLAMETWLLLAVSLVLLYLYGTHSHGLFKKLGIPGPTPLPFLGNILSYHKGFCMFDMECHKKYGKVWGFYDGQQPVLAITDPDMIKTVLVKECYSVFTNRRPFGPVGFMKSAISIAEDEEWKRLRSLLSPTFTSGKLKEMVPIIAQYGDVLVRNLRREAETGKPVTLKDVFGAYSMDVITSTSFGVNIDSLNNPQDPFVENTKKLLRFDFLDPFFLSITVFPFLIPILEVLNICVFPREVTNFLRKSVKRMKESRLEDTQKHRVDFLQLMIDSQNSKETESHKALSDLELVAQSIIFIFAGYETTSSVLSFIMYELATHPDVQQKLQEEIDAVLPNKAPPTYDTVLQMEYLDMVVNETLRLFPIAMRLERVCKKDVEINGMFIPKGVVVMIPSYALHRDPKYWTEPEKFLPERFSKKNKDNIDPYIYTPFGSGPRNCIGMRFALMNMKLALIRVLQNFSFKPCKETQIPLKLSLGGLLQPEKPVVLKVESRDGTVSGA
T3 sequence (P11940 whole entry): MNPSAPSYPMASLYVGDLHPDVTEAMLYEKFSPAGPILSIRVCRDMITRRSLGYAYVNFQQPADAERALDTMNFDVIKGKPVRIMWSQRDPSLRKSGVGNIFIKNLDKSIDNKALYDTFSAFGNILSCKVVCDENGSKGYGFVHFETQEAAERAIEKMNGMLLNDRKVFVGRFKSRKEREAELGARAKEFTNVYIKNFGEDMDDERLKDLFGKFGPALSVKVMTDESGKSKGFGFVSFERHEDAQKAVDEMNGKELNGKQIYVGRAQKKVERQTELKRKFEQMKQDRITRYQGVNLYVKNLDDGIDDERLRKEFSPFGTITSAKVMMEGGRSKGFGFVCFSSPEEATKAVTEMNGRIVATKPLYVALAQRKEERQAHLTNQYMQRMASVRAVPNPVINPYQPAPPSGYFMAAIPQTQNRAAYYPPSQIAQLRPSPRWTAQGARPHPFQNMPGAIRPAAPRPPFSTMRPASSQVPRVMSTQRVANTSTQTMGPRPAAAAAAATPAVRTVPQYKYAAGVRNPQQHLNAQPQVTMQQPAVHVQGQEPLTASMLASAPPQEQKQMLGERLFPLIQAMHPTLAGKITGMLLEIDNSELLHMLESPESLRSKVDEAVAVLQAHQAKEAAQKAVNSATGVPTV
Estrogen receptor beta, sequence (Q92731 whole entry): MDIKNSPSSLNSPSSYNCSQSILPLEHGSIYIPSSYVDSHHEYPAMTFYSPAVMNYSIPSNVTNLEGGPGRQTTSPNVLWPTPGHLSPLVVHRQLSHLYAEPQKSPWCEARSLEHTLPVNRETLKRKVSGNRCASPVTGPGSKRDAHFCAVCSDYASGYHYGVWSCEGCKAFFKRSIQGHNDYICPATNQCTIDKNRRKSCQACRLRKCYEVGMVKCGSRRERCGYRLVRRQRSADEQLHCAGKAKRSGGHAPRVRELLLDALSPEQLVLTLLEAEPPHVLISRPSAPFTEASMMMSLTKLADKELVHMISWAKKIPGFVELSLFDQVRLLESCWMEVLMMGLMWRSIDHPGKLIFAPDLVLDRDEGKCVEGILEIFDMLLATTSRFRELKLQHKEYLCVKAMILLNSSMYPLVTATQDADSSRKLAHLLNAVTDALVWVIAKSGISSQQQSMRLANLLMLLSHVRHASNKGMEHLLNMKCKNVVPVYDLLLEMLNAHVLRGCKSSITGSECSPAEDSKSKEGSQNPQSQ
Luciferin 4-monooxygenase, sequence (P08659 whole entry): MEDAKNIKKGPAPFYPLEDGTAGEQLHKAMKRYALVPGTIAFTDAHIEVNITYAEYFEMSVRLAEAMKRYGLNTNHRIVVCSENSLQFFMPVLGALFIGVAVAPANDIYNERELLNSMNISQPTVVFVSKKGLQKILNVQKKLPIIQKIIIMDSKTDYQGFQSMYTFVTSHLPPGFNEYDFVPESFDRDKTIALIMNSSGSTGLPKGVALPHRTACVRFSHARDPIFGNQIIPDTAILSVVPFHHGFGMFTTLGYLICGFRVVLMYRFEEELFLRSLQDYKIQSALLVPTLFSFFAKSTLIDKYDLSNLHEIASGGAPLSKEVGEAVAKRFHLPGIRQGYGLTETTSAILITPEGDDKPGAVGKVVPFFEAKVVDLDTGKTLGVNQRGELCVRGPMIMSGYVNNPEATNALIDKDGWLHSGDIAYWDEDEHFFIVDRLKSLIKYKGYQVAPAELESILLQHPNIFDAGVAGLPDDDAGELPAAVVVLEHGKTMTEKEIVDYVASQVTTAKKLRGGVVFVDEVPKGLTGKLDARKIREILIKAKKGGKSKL
Cytochrome P450 2D6, sequence (P10635 whole entry): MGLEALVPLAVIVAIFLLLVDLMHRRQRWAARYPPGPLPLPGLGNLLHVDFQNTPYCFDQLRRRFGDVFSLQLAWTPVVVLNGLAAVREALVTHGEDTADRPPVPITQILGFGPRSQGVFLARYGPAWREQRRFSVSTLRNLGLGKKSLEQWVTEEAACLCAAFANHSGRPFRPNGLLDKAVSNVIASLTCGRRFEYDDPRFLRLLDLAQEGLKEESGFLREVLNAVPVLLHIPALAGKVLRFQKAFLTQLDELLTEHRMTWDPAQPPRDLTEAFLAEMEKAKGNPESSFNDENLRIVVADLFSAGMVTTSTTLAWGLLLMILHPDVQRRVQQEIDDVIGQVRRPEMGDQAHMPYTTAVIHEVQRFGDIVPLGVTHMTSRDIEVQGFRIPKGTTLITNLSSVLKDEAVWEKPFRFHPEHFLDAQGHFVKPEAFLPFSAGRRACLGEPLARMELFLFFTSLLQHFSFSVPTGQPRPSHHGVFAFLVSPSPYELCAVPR
DNA dC->dU-editing enzyme APOBEC-3G, sequence (Q9HC16 whole entry): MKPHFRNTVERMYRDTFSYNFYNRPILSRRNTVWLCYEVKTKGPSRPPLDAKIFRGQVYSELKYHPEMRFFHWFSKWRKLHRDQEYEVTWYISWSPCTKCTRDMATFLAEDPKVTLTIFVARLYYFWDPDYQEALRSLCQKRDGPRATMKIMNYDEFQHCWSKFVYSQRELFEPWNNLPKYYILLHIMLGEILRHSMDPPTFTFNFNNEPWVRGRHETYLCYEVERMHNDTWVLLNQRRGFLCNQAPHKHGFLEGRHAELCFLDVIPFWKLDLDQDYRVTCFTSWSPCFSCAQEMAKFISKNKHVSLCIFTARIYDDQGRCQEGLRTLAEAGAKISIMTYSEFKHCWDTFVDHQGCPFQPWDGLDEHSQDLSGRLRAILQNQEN

Compound: C[N+](C)([O-])CCOc1cc2c(c3ccccc13)-c1ccccc1C2=O
- GI50 (P388/ADR): 8.79 µM (inactive)
- GI50 (SN12K1): 4.37 µM (inactive)
- GI50 (P388): 6.19 µM (inactive)

Compound: O=C(O)C1CC(c2ccccc2F)=NO1 (stereo not given)
- IC50 [1]: > 64 µM (inactive)

Compound: c1ccc(Oc2cc(-c3ccccc3)ncn2)cc1
- IC50 (Protein skinhead-1): 17.4 µM (active)
- AC50 (Cytochrome P450 3A4): inconclusive

Compound: CCN1CCN(CCNC(=O)c2ccc3c(c2)N(Cc2ccc(F)cc2)C(=O)/C(=C/c2ccccc2)S3)CC1
- AC50 [2]: 3.61 µM (active)
- IC50 [3]: > 20 µM (inactive)
- IC50 [1]: 50 µM (inactive)

Compound: C/C=C/c1ccc([C@@H]2[C@@H](CO)N(c3nc(CC)cs3)[C@@H]2CNC(C)C)cc1
- AC50 [4]: 0.751 µM (active)
- AC50 [5]: 20.8 µM (active)

Compound: COc1nc(SC)nc2c1cnn2C1OC(C(O)CO)C(OC)C1O (stereo not given)
- GI50 (P388/ADR): 41.3 µM (inactive)
- GI50 (SN12K1): > 54.3 µM (inactive)
- GI50 (P388): > 39.4 µM (inactive)

Compound: Cc1nc2ncnn2c(N2CCN(C(=O)Cc3cccs3)CC2)c1C
- IC50 (Estrogen receptor beta): 0.107 µM (not active)

Compound: COc1ccc(Cl)cc1NC(=O)CN(C)CC(=O)Nc1ccccc1C(F)(F)F
- EC50 [6]: > 50 µM (active)

Compound: CN(c1ccc(OCc2ccc([N+](=O)[O-])cc2)cc1)S(=O)(=O)c1ccccc1
- IC50 [7]: > 69.5 µM (inactive)
- IC50 [8]: > 69.5 µM (inactive)

Compound: CCNC(=O)C[C@H]1CC[C@H]2[C@H](COc3ccc(NS(C)(=O)=O)cc3C(=O)N2C)O1
- AC50 [9]: 3.57 µM (active)

Compound: CCC(/C=C/C1OC(=O)C=CC1C)=C\C(C)C/C=C/C(C)=C/C(C)C(=O)C(C)C(O)C(C)C/C(C)=C/C(=O)O (stereo not given)
- GI50 (SN12K1): 1.56 µM (inactive)
- GI50 (P388): 0.914 µM (active)

Compound: O=C(CC(c1ccc(F)cc1)c1ccco1)N1CCOCC1 (stereo not given)
- IC50 (Prothrombin): > 50 µM (not active)

Compound: O=C(Cn1c(=O)c2ccccc2n(CC(=O)N2CCCCC2)c1=O)N1CCCCC1
- AC50 [9]: 6.5 µM (active)

Compound: O=C(NN1C(=O)CS(=O)(=O)C1c1ccc(Cl)c(Cl)c1)c1ccncc1 (stereo not given)
- GI50 (P388/ADR): 36.6 µM (inactive)
- GI50 (SN12K1): > 100 µM (inactive)
- GI50 (P388): 25.6 µM (inactive)

Compound: O=C(COC(=O)c1n[nH]c2ccccc12)Nc1cccc(S(=O)(=O)N2CCOCC2)c1
- EC50 [10]: > 112 µM (not active)
- IC50 (Prothrombin): 1.11 µM (active)

Compound: CN(C)CCNC(=O)c1cccc2ccc(-c3ccc(F)cc3)nc12
- GI50 (P388/ADR): 1.75 µM (inactive)
- GI50 (SN12K1): 2.96 µM (inactive)
- GI50 (P388): 0.61 µM (active)

Compound: O=C(CCc1ccccc1)n1nc(-c2ccco2)nc1SCc1ccccc1
- IC50 (Prothrombin): 0.133 µM (active)

Compound: Clc1cccc(NCc2nnc(SCc3ccc(Cl)cc3Cl)o2)c1
- CC50 [11]: 19.1 µM (active)
- IC50 [7]: > 69.5 µM (inactive)
- IC50 [8]: 25.4 µM (inactive)

Compound: O=C(NCCc1ccncc1)Nc1ccc(Cl)c(Cl)c1
- EC50 [6]: > 50 µM (active)
- EC50 [12]: 1.34 µM (active)
- EC50 [13]: > 60 µM (not active)

Compound: Cn1c(SCC(=O)NN=C(S)Nc2ccccc2)nnc1-c1ccncc1
- IC50 (Prothrombin): > 50 µM (not active)

Compound: Cc1ccc2c(c1)-c1c(ssc1=S)C(C)(C)N2C(=O)c1ccco1
- IC50 [14]: > 100 µM (inactive)
- IC50 [15]: > 66 µM (inactive)
- IC50 [16]: > 66 µM (inactive)

Compound: N#CCCn1c2ccccc2c2nc3ccccc3nc21
- EC50 [6]: > 50 µM (active)

Compound: Cc1ccc(-c2ccc3c(c2)O[C@@H](CN(C)C(=O)Nc2ccc(C(F)(F)F)cc2)[C@H](C)CN([C@H](C)CO)S3(=O)=O)cc1
- AC50 [4]: 5.26 µM (active)
- AC50 [5]: > 39 µM (inactive)

Compound: N#Cc1c(N)nc2c(c1-c1cccs1)CCCC2
- AC50 [9]: 6.16 µM (active)

Compound: OC[C@H]1[C@@H](c2ccc(/C=C/c3ccccc3)cc2)[C@@H]2CN(Cc3ccncc3)CCCCN12
- AC50 [4]: 2.32 µM (active)
- AC50 [5]: 12.7 µM (active)

Compound: O=C(Nc1cc(Cl)ccc1O)C1CC(c2c(F)cccc2Cl)=NO1 (stereo not given)
- IC50 [7]: > 69.5 µM (inactive)
- IC50 [8]: > 69.5 µM (inactive)

Compound: Cc1c(CC(=O)N2CCC(C(N)=O)CC2)c(=O)oc2cc3c(cc12)CCC1(CCCCC1)O3
- EC50 [6]: > 50 µM (active)

Compound: COc1ccc(C2=NS(=O)(=O)N(C)C(C(=O)Nc3ccc(C)cc3)=C2)cc1
- IC50 [7]: > 69.5 µM (inactive)
- IC50 [8]: 56.7 µM (inactive)

Compound: C[C@]12Cc3cn4c(nc3C=C1CC[C@H]1[C@@H]2CC[C@@]2(C)[C@H]1CC[C@@]2(O)C#N)nc1ccccc14
- AC50 (Cytochrome P450 2C19): 7.94 µM (inconclusive)
- AC50 (Cytochrome P450 2D6): 25.1 µM (inconclusive)
- AC50 (Cytochrome P450 1A2): 15.8 µM (inconclusive)
- AC50 (Cytochrome P450 2C9): 10 µM (inconclusive)
- AC50 (Cytochrome P450 3A4): inconclusive

Compound: CN(C)CCCNC(=O)C[C@H]1CC[C@H]2[C@H](COc3ccc(NC(=O)NC4CCCC4)cc3C(=O)N2C)O1
- AC50 [9]: 0.509 µM (active)

Compound: COc1ccc(NC(=O)C2CCN(S(=O)(=O)c3c(C)noc3/C=C/N(C)C)CC2)cc1
- IC50 [7]: > 69.5 µM (inactive)
- IC50 [8]: 23.9 µM (inactive)

Compound: Cc1nc2cc(C(=O)N3CCC4(CC3)OCCO4)ccc2n1-c1cccc(F)c1
- EC50 [6]: > 50 µM (active)

Compound: O=[N+]([O-])c1ccc2[nH]c3c(-c4ccccc4)nccc3c2c1
- GI50 (P388/ADR): 12.9 µM (inactive)
- GI50 (SN12K1): 20.5 µM (inactive)
- GI50 (P388): 10.9 µM (inactive)
